Results on 22 compounds are retold here after the NIST ThermoML archive (doi:10.1016/j.jct.2016.01.017).

Structures are written as SMILES. Numbers after ± are expanded uncertainties.

The nature of the series: activity coefficient (dimensionless); of the first substance listed, at infinite dilution; xn = mol fraction of the nth substance listed. Particulars: 100 kPa, Liquid, Chromatography, x1 = 0.

Regarding `Cc1ccccc1C` [1,2-dimethylbenzene] + CCCC[n+]1ccc(C#N)cc1.O=S(=O)([N-]S(=O)(=O)C(F)(F)F)C(F)(F)F, the activity coefficient is, setting by setting: (308.15 K) 1.79 ± 0.15; (318.15 K) 1.89 ± 0.16; (328.15 K) 2 ± 0.17; (338.15 K) 2.1 ± 0.18; (348.15 K) 2.21 ± 0.19; (358.15 K) 2.3 ± 0.2. In addition, the activity coefficient (368.15 K) was 2.39 ± 0.21.

With `Cc1cccc(C)c1` [1,3-dimethylbenzene] + CCCC[n+]1ccc(C#N)cc1.O=S(=O)([N-]S(=O)(=O)C(F)(F)F)C(F)(F)F, the activity coefficient is, setting by setting: (308.15 K) 2.13 ± 0.18; (318.15 K) 2.25 ± 0.19; (328.15 K) 2.37 ± 0.2; (338.15 K) 2.49 ± 0.21; (348.15 K) 2.6 ± 0.22; (358.15 K) 2.71 ± 0.23. In addition, the activity coefficient (368.15 K) is 2.83 ± 0.24.

As for `Cc1ccc(C)cc1` [1,4-dimethylbenzene] + CCCC[n+]1ccc(C#N)cc1.O=S(=O)([N-]S(=O)(=O)C(F)(F)F)C(F)(F)F, the activity coefficient stood at 2.15 ± 0.19 (308.15 K); 2.28 ± 0.2 (318.15 K); 2.4 ± 0.21 (328.15 K); 2.52 ± 0.22 (338.15 K); 2.65 ± 0.23 (348.15 K); 2.77 ± 0.24 (358.15 K). For the same compound, for the setting “368.15 K”, the activity coefficient worked out at 2.89 ± 0.25.

For `C1COCCO1` [1,4-dioxane] + CCCC[n+]1ccc(C#N)cc1.O=S(=O)([N-]S(=O)(=O)C(F)(F)F)C(F)(F)F, the activity coefficient was determined as 0.419 ± 0.041 (308.15 K); 0.461 ± 0.044 (318.15 K); 0.502 ± 0.046 (328.15 K); 0.544 ± 0.049 (338.15 K); 0.587 ± 0.052 (348.15 K); 0.631 ± 0.055 (358.15 K). Moreover, the activity coefficient (368.15 K) was determined as 0.676 ± 0.058.

As for `C=CCCCCCCCC` [1-decene] + CCCC[n+]1ccc(C#N)cc1.O=S(=O)([N-]S(=O)(=O)C(F)(F)F)C(F)(F)F, the activity coefficient came out at 59.4 ± 5.1 (308.15 K); 57.3 ± 5 (318.15 K); 55.2 ± 4.8 (328.15 K); 53.5 ± 4.6 (338.15 K); 51.8 ± 4.5 (348.15 K); 50.4 ± 4.4 (358.15 K). Besides, the activity coefficient (368.15 K) came to 49 ± 4.2.

`C=CCCCCC` [1-heptene] + CCCC[n+]1ccc(C#N)cc1.O=S(=O)([N-]S(=O)(=O)C(F)(F)F)C(F)(F)F: the activity coefficient is, setting by setting: (308.15 K) 21.3 ± 1.8; (318.15 K) 20.7 ± 1.8; (328.15 K) 20 ± 1.7; (338.15 K) 19.5 ± 1.7; (348.15 K) 19 ± 1.6; (358.15 K) 18.5 ± 1.6. For the same compound, under “368.15 K”, the activity coefficient is 18.1 ± 1.6.

For `C#CCCCCC` [1-heptyne] + CCCC[n+]1ccc(C#N)cc1.O=S(=O)([N-]S(=O)(=O)C(F)(F)F)C(F)(F)F, the activity coefficient (308.15 K) worked out at 6.92 ± 0.6; the activity coefficient (318.15 K) was determined as 7.02 ± 0.61; the activity coefficient (328.15 K) was determined as 7.11 ± 0.61; the activity coefficient (338.15 K) was 7.21 ± 0.62; the activity coefficient (348.15 K) was 7.3 ± 0.63; the activity coefficient (358.15 K) stood at 7.39 ± 0.64. The activity coefficient (368.15 K) came out at 7.48 ± 0.65.

For `C#CCCCC` [1-hexyne] + CCCC[n+]1ccc(C#N)cc1.O=S(=O)([N-]S(=O)(=O)C(F)(F)F)C(F)(F)F, the activity coefficient by setting is: (308.15 K) 4.81 ± 0.41; (318.15 K) 4.91 ± 0.42; (328.15 K) 5.01 ± 0.43; (338.15 K) 5.1 ± 0.44; (348.15 K) 5.19 ± 0.45; (358.15 K) 5.28 ± 0.46. For the same compound, the activity coefficient (368.15 K) stood at 5.36 ± 0.46.

Consider `CCC[N+](=O)[O-]` [1-nitropropane] + CCCC[n+]1ccc(C#N)cc1.O=S(=O)([N-]S(=O)(=O)C(F)(F)F)C(F)(F)F, for which the activity coefficient came out at 0.74 ± 0.063 (308.15 K); 0.768 ± 0.065 (318.15 K); 0.796 ± 0.067 (328.15 K); 0.824 ± 0.069 (338.15 K); 0.851 ± 0.071 (348.15 K); 0.877 ± 0.073 (358.15 K). Besides, the activity coefficient (368.15 K) turned out to be 0.904 ± 0.075.

As to `C#CCCCCCC` [1-octyne] + CCCC[n+]1ccc(C#N)cc1.O=S(=O)([N-]S(=O)(=O)C(F)(F)F)C(F)(F)F, the activity coefficient by setting is: (308.15 K) 10.1 ± 0.9; (318.15 K) 10.2 ± 0.9; (328.15 K) 10.3 ± 0.9; (338.15 K) 10.3 ± 0.9; (348.15 K) 10.4 ± 0.9; (358.15 K) 10.4 ± 0.9. Further, under “368.15 K”, the activity coefficient worked out at 10.5 ± 0.9.

On to `C=CCCC` [1-pentene] + CCCC[n+]1ccc(C#N)cc1.O=S(=O)([N-]S(=O)(=O)C(F)(F)F)C(F)(F)F, for which the activity coefficient amounted to 11.5 ± 1 (308.15 K); 10.9 ± 0.9 (318.15 K); 10.3 ± 0.9 (328.15 K); 9.83 ± 0.85 (338.15 K); 9.41 ± 0.81 (348.15 K); 9.02 ± 0.78 (358.15 K). For the same compound, the activity coefficient (368.15 K) is 8.65 ± 0.75.

As to `C#CCCC` [1-pentyne] + CCCC[n+]1ccc(C#N)cc1.O=S(=O)([N-]S(=O)(=O)C(F)(F)F)C(F)(F)F, the activity coefficient by setting is: (308.15 K) 3.4 ± 0.29; (318.15 K) 3.48 ± 0.3; (328.15 K) 3.56 ± 0.31; (338.15 K) 3.64 ± 0.31; (348.15 K) 3.7 ± 0.3; (358.15 K) 3.77 ± 0.33. For the same compound, the activity coefficient (368.15 K) turned out to be 3.84 ± 0.33.

As for `CC(C)CC(C)(C)C` [2,2,4-trimethylpentane] + CCCC[n+]1ccc(C#N)cc1.O=S(=O)([N-]S(=O)(=O)C(F)(F)F)C(F)(F)F, the activity coefficient (308.15 K) is 46.5 ± 4; the activity coefficient (318.15 K) was 42.9 ± 3.7; the activity coefficient (328.15 K) came out at 39.8 ± 3.4; the activity coefficient (338.15 K) was 37 ± 3.2; the activity coefficient (348.15 K) turned out to be 34.7 ± 3; the activity coefficient (358.15 K) was determined as 32.5 ± 2.8. For the same compound, the activity coefficient (368.15 K) is 30.7 ± 2.7.

As to `CCC(C)(C)C` [2,2-dimethylbutane] + CCCC[n+]1ccc(C#N)cc1.O=S(=O)([N-]S(=O)(=O)C(F)(F)F)C(F)(F)F, the activity coefficient came out at 34.9 ± 3 (308.15 K); 31.3 ± 2.7 (318.15 K); 28.2 ± 2.4 (328.15 K); 25.6 ± 2.2 (338.15 K); 23.4 ± 2 (348.15 K); 21.4 ± 1.9 (358.15 K). Further, the activity coefficient (368.15 K) stood at 19.7 ± 1.7.

On to `CCOC(C)(C)C` [2-ethoxy-2-methylpropane] + CCCC[n+]1ccc(C#N)cc1.O=S(=O)([N-]S(=O)(=O)C(F)(F)F)C(F)(F)F, for which the activity coefficient stood at 8.97 ± 0.77 (308.15 K); 8.89 ± 0.77 (318.15 K); 8.84 ± 0.76 (328.15 K); 8.8 ± 0.76 (338.15 K); 8.78 ± 0.76 (348.15 K); 8.73 ± 0.75 (358.15 K). For the same compound, for the setting “368.15 K”, the activity coefficient amounted to 8.68 ± 0.75.

Take `CCC(C)(C)OC` [2-methoxy-2-methylbutane] + CCCC[n+]1ccc(C#N)cc1.O=S(=O)([N-]S(=O)(=O)C(F)(F)F)C(F)(F)F: the activity coefficient is, setting by setting: (308.15 K) 4.33 ± 0.37; (318.15 K) 4.48 ± 0.39; (328.15 K) 4.62 ± 0.4; (338.15 K) 4.76 ± 0.41; (348.15 K) 4.88 ± 0.42; (358.15 K) 5.01 ± 0.43. The activity coefficient (368.15 K) was 5.13 ± 0.44.

On to `COC(C)(C)C` [2-methoxy-2-methylpropane] + CCCC[n+]1ccc(C#N)cc1.O=S(=O)([N-]S(=O)(=O)C(F)(F)F)C(F)(F)F, for which the activity coefficient turned out to be 3.01 ± 0.26 (308.15 K); 3.13 ± 0.27 (318.15 K); 3.24 ± 0.28 (328.15 K); 3.35 ± 0.29 (338.15 K); 3.45 ± 0.3 (348.15 K); 3.56 ± 0.31 (358.15 K). Further, the activity coefficient (368.15 K) is 3.66 ± 0.32.

As to `CC(C)CO` [2-methyl-1-propanol] + CCCC[n+]1ccc(C#N)cc1.O=S(=O)([N-]S(=O)(=O)C(F)(F)F)C(F)(F)F, the activity coefficient is, setting by setting: (308.15 K) 3.2 ± 0.28; (318.15 K) 2.93 ± 0.25; (328.15 K) 2.7 ± 0.23; (338.15 K) 2.5 ± 0.22; (348.15 K) 2.32 ± 0.2; (358.15 K) 2.18 ± 0.19. The activity coefficient (368.15 K) is 2.04 ± 0.18.

For `CC(C)(C)O` [2-methylpropan-2-ol] + CCCC[n+]1ccc(C#N)cc1.O=S(=O)([N-]S(=O)(=O)C(F)(F)F)C(F)(F)F, the activity coefficient (308.15 K) was 2.28 ± 0.2; the activity coefficient (318.15 K) was 2.14 ± 0.18; the activity coefficient (328.15 K) worked out at 2.01 ± 0.17; the activity coefficient (338.15 K) came to 1.9 ± 0.16; the activity coefficient (348.15 K) worked out at 1.8 ± 0.15; the activity coefficient (358.15 K) was 1.71 ± 0.15. The activity coefficient (368.15 K) was determined as 1.63 ± 0.14.

Regarding `CCC(C)CC` [3-methylpentane] + CCCC[n+]1ccc(C#N)cc1.O=S(=O)([N-]S(=O)(=O)C(F)(F)F)C(F)(F)F, the activity coefficient runs as follows: (308.15 K) 30.7 ± 2.7; (318.15 K) 28.4 ± 2.5; (328.15 K) 26.4 ± 2.3; (338.15 K) 24.7 ± 2.1; (348.15 K) 23.1 ± 2; (358.15 K) 21.7 ± 1.9. Further, under “368.15 K”, the activity coefficient came to 20.6 ± 1.8.

Take `C=C(C)c1ccccc1` [(1-methylethenyl)benzene] + CCCC[n+]1ccc(C#N)cc1.O=S(=O)([N-]S(=O)(=O)C(F)(F)F)C(F)(F)F: the activity coefficient reads like this: (308.15 K) 1.94 ± 0.17; (318.15 K) 2.09 ± 0.18; (328.15 K) 2.24 ± 0.19; (338.15 K) 2.4 ± 0.21; (348.15 K) 2.55 ± 0.22; (358.15 K) 2.7 ± 0.23. For the same compound, the activity coefficient (368.15 K) is 2.86 ± 0.25.

As for `CC(C)=O` [acetone] + CCCC[n+]1ccc(C#N)cc1.O=S(=O)([N-]S(=O)(=O)C(F)(F)F)C(F)(F)F, the activity coefficient reads like this: (308.15 K) 0.377 ± 0.039; (318.15 K) 0.403 ± 0.04; (328.15 K) 0.427 ± 0.042; (338.15 K) 0.453 ± 0.043; (348.15 K) 0.479 ± 0.045; (358.15 K) 0.505 ± 0.046. Besides, the activity coefficient (368.15 K) was found to be 0.531 ± 0.048.
